The source of these data is the C3SDB collision cross section collection.

For data set [1] the following is noted: instrument: DT, single field.
The conditions of data set [2]: instrument: DT, single field, calibrated with Agilent tune mix (Agilent).
The conditions of data set [3]: instrument: DT, stepped-field.
The conditions of data set [4]: instrument: TW, calibrated with phosphatidylcholines (ESI+) and phosphatidylethanolamines (ESI-).
For data set [5] the following is noted: [M+Na]+; instrument: DT; stepped-field.

Values joined by “and” are separate entries in the source; they are usually repeats but may differ in a detail not shown here. Equal entries are not always repeated.

On to `CCCCCCCCCCCCCCCCCCCC(=O)O[C@@H](CO)COC(=O)CCCCCCCCCCC` [DG(32:0)], for which the “collision cross section (N2)” value in data set [1] ([M+NH4]+) amounted to 255.58 Å². Turning to `CCCCC/C=C\C/C=C\CCCCCCCC(=O)O[C@@H](CO)COC(=O)CCCCCCCCCCCCC` [DG(32:2)], in data set [1] ([M+NH4]+), the “collision cross section (N2)” value amounted to 253.01 Å².

Regarding `CCCCC/C=C\C/C=C\CCCCCCCCCCCC(=O)O[C@@H](CO)COC(=O)CCCCCCCCCCCCC` [DG(36:2)], in data set [1] ([M+NH4]+), the “collision cross section (N2)” value is 266.09 Å². Same read-out and setting: the result for `CC/C=C\C/C=C\C/C=C\C/C=C\C/C=C\C/C=C\CCC(=O)O[C@@H](CO)COC(=O)CCCCCCC/C=C\CCCC` [DG(36:7)] reads 252.3 Å²; that for `CC/C=C\C/C=C\C/C=C\C/C=C\C/C=C\CCCC(=O)O[C@@H](CO)COC(=O)CCCCCCC/C=C\C/C=C\CCCC` [DG(37:7)], 256.98 Å². On to `CCCCC/C=C\C/C=C\C/C=C\C/C=C\CCCCCC(=O)O[C@@H](CO)COC(=O)CCCC/C=C\C/C=C\C/C=C\CCCCC` [DG(40:7)], for which the “collision cross section (N2)” value in data set [1] ([M+NH4]+) was 266.8 Å² and 270.46 Å² and 267.84 Å². The same measure, in the same setting: the result for `CCCCCCCCCCCCCCCCCCCCCCC=CCC(=O)OC[C@H](CO)OC(=O)CC=CCCCCCCCCCCCCCCCCCCCCCC` [DG(52:2)] reads 319.62 Å². On to `CCCCCCCCCCCCCCCCCCC(=O)O[C@H](COC(=O)CCCCCCCCCCC)COP(=O)([O-])OCC[N+](C)(C)C` [PC(31:0)], for which the “collision cross section (N2)” value in data set [1] ([M+H]+) turned out to be 278.69 Å². For `CCC/C=C\C/C=C\CCCCCCCCCC(=O)O[C@H](COC(=O)CCCCCCCCCCCCC)COP(=O)([O-])OCC[N+](C)(C)C` [PC(32:2)], the figures for the “collision cross section (N2)” value in data set [2] ([M+H]+), in data set [3] ([M+K]+) and in data set [4] ([M+H]+) were 276.8 Å², 289.2 Å² and 274 Å², respectively.

For `CCCCCCCCCCCCCCCCCCCCC(=O)O[C@H](COC(=O)CCCCCCCCCCC)COP(=O)([O-])OCC[N+](C)(C)C` [PC(33:0)], the “collision cross section (N2)” value in data set [1] ([M+Na]+) is listed as 284.2 Å². Take `CCCC/C=C\CCCCCCCC(=O)OC[C@H](COP(=O)([O-])OCC[N+](C)(C)C)OC(=O)CCCCCCCCCCCCCCCCCC` [PC(33:1)]: the results for the “collision cross section (N2)” value in data set [1] ([M+H]+) and in data set [1] ([M+Na]+) were 281.49 Å² and 283.22 Å², respectively. With `CCCCCCCCC/C=C\CCCCCCCC(=O)O[C@H](COC(=O)CCCCCCCCCCCC)COP(=O)(O)OCCN` [PE(32:1)], the “collision cross section (N2)” value worked out at 267.2 Å² in data set [2] ([M+H]+), 272 Å² in data set [2] ([M+Na]+), 256.6 Å² in data set [2] ([M-H]-) and 274.1 Å² in data set [3] ([M+Na]+). `CCCCCCCCCC/C=C\CCCCCCCCCC(=O)O[C@H](COC(=O)CCCCCCCCCCC)COP(=O)(O)OCCN` [PE(34:1)]: the “collision cross section (N2)” value in data set [2] ([M+H]+) worked out at 274.7 Å²; in data set [2] ([M+Na]+), 281.2 Å²; in data set [2] ([M-H]-), 263.5 Å²; in data set [3] ([M+Na]+), 281.3 Å²; in data set [4] ([M+H]+), 272.8 Å²; in data set [4] ([M-H]-), 262.8 Å².

With `CCCCC/C=C\C/C=C\CCCCCCCCCC(=O)O[C@H](COC(=O)CCCCCCCCCCCCC)COP(=O)(O)OCCN` [PE(34:2)], the “collision cross section (N2)” value in data set [2] ([M+H]+) stood at 272.7 Å²; in data set [2] ([M+Na]+), 277.6 Å²; in data set [2] ([M-H]-), 262 Å²; in data set [3] ([M+Na]+) it was 278.3 Å²; in data set [4] ([M+H]+), 269.9 Å². With `CCCC/C=C\CCCCCCCC(=O)OC[C@H](COP(=O)(O)OCCN)OC(=O)CCCCCCCCC/C=C\C/C=C\CCCCC` [PE(34:3)], the “collision cross section (N2)” value came to 270.9 Å² in data set [2] ([M+H]+), 260.2 Å² in data set [2] ([M-H]-) and 276.1 Å² in data set [3] ([M+Na]+). In the case of `CCCCC/C=C\C/C=C\CCCCCCCCCCCC(=O)O[C@H](COC(=O)CCCCCCCCCCCC)COP(=O)(O)OCCN` [PE(35:2)], the “collision cross section (N2)” value came out at 275 Å² in data set [2] ([M+H]+), 264.9 Å² in data set [2] ([M-H]-), 282.5 Å² in data set [3] ([M+K]+) and 281.3 Å² in data set [3] ([M+Na]+). Take `CCCCC/C=C\C/C=C\C/C=C\CCCCC(=O)OC[C@H](COP(=O)(O)OCCN)OC(=O)CCCCCCCCCCC/C=C\C/C=C\CCCCC` [PE(40:5)]: the “collision cross section (N2)” value in data set [2] ([M+H]+) was 287.1 Å²; in data set [2] ([M-H]-) it was 277.5 Å²; in data set [3] ([M+Na]+) it was 294.8 Å²; in data set [4] ([M+H]+) it was 284.8 Å²; in data set [4] ([M-H]-) it was 276.2 Å². In the case of `CC/C=C\C/C=C\C/C=C\C/C=C\C/C=C\CCCC(=O)OC[C@H](COP(=O)(O)OCCN)OC(=O)CCC/C=C\C/C=C\C/C=C\C/C=C\CCCCC` [PE(40:9)], the “collision cross section (N2)” value in data set [2] ([M+Na]+) was 283.1 Å²; in data set [3] ([M+Na]+), 286.6 Å².

Take `CC/C=C\C/C=C\C/C=C\C/C=C\C/C=C\C/C=C\CCC(=O)O[C@H](COC(=O)CCCCCCCCC/C=C\C/C=C\CCCCC)COP(=O)(O)OCCN` [PE(42:8)]: the “collision cross section (N2)” value was found to be 297.3 Å² in data set [3] ([M+Na]+) and 290 Å² in data set [4] ([M+H]+). As to `CC/C=C\C/C=C\C/C=C\C/C=C\C/C=C\C/C=C\CCC(=O)OC[C@H](COP(=O)(O)OC[C@H](N)C(=O)O)OC(=O)CCCCC/C=C\C/C=C\C/C=C\C/C=C\CCCCC` [PS(44:10)], the “collision cross section (N2)” value in data set [5] turned out to be 296.88 Å²; in data set [3] ([M+Na]+), 303.5 Å². For the compound `CC=CCC=CCC=CCC=CCC=CCC=CCC=CCC=CCC(=O)OC[C@H](COP(=O)(O)OC[C@H](N)C(=O)O)OC(=O)CC=CCC=CCC=CCC=CCC=CCC=CCC=CCC=CC` [PS(52:16)], the “collision cross section (N2)” value in data set [3] ([M+Na]+) was found to be 322.2 Å². `NCCCC[C@H](NC(=O)[C@H](CC(N)=O)NC(=O)[C@H](CCC(=O)O)NC(=O)[C@@H](N)CCC(N)=O)C(=O)O` [QENK]: in data set [3] ([M+H]+), the “collision cross section (N2)” value is 219 Å². In the case of `N=C(N)NCCC[C@H](NC(=O)CNC(=O)[C@H](CC(=O)O)NC(=O)[C@@H](N)CO)C(=O)NCC(=O)O` [SDGRG], the “collision cross section (N2)” value in data set [3] ([M+H]+) stood at 204.6 Å²; in data set [3] ([M+K]+), 205.4 Å²; in data set [3] ([M+Na]+), 203.5 Å². On to `CCCCCCCCCCCCC=CC[C@@H](O)[C@H](COP(=O)([O-])OCC[N+](C)(C)C)NC(=O)CC=CCCCCCCCCCCCCCC` [SM(36:2)], for which the “collision cross section (N2)” value in data set [2] ([M+H]+) worked out at 286.1 Å²; in data set [3] ([M+Na]+), 290.9 Å². As for `CCCCCCCCCCCCCCCCCCCCCC(=O)N[C@@H](COP(=O)([O-])OCC[N+](C)(C)C)[C@H](O)CCCCCCCCCCCCCCC` [SM(40:0)], the “collision cross section (N2)” value in data set [3] ([M+Na]+) came to 305.7 Å². Same read-out and setting: the result for `CCCCCCCCCCCCC=CC[C@@H](O)[C@H](COP(=O)([O-])OCC[N+](C)(C)C)NC(=O)CC=CCCCCCCCCCCCCCCCCCCC` [SM(41:2)] reads 303.9 Å². On to `CCCCCCCCCCCCC=CC[C@@H](O)[C@H](COP(=O)([O-])OCC[N+](C)(C)C)NC(=O)CC=CCC=CCCCCCCCCCCCCCCCCC` [SM(42:3)], for which the entries for the “collision cross section (N2)” value in data set [2] ([M+HCOO]-), in data set [2] ([M+H]+) and in data set [3] ([M+Na]+) were 299.5 Å², 302 Å² and 305.6 Å², respectively. `CCCCCCCCCCCCC=CC[C@@H](O)[C@H](COP(=O)([O-])OCC[N+](C)(C)C)NC(=O)CC=CCCCCCCCCCCCCCCCCCCCCC` [SM(43:2)]: in data set [3] ([M+Na]+), the “collision cross section (N2)” value worked out at 311.5 Å².

Take `CCCCCCCCCCCCC=CC[C@@H](O)[C@H](COP(=O)([O-])OCC[N+](C)(C)C)NC(=O)CC=CCC=CCCCCCCCCCCCCCCCCCC` [SM(43:3)]: in data set [3] ([M+Na]+), the “collision cross section (N2)” value stood at 309.6 Å². As for `CCCCCCCCCCCCC=CC[C@@H](O)[C@H](COP(=O)([O-])OCC[N+](C)(C)C)NC(=O)CCCCCCCCCCCCCCCCCCCCCCCCCC` [SM(45:1)], the “collision cross section (N2)” value in data set [1] ([M+H]+) worked out at 315.31 Å². With `OC[C@@H](O)[C@@H](O)[C@H](O)[C@@H](O)CO` [Sorbitol], the “collision cross section (N2)” value in data set [3] ([M+Na]+) is reported as 139.4 Å². For the compound `CCCC[N+](CCCC)(CCCC)CCCC` [TAA4], the “collision cross section (N2)” value in data set [3] ([M]+) amounted to 166.6 Å². The same measure, in the same setting: the result for `CCCCC[N+](CCCCC)(CCCCC)CCCCC` [TAA5] reads 190.1 Å². Still for that read-out and setting: the result for `CCCCCCCCCCCC[N+](CCCCCCCCCCCC)(CCCCCCCCCCCC)CCCCCCCCCCCC` [TAA12] reads 319 Å². Consider `CC(C)[C@H](N)C(=O)N[C@@H](CCC(=O)O)C(=O)N[C@@H](CC(=O)O)C(=O)N[C@H](C(=O)N[C@@H](CC(=O)O)C(=O)N[C@@H](CCCNC(=N)N)C(=O)O)C(C)C` [VEDVDR], for which the “collision cross section (N2)” value in data set [3] ([M+H]+) came to 256.6 Å².

Consider `CCC(C)[C@H](NC(=O)CNC(=O)[C@H](CC(C)C)NC(=O)[C@@H](N)C(C)C)C(=O)N[C@@H](CC(=O)O)C(=O)NCC(=O)NCC(=O)N[C@@H](CCC(=O)O)C(=O)NCC(=O)N[C@@H](CCCCN)C(=O)O` (stereo partly specified) [VLGIDGGEGK], for which the “collision cross section (N2)” value in data set [3] ([M+H]+) is given as 291.2 Å².

As for `CSCC[C@H](NC(=O)[C@@H](N)Cc1c[nH]c2ccccc12)C(=O)NCC(=O)N[C@@H](CCCCN)C(=O)O` [WMGK], the “collision cross section (N2)” value in data set [3] ([M+H]+) was found to be 220.1 Å². Regarding `CCC(C)[C@H](NC(=O)[C@H](CCC(=O)O)NC(=O)[C@H](Cc1ccc(O)cc1)NC(=O)[C@H](CC(C)C)NC(=O)[C@@H](N)Cc1ccc(O)cc1)C(=O)N[C@@H](C)C(=O)N[C@@H](CCCNC(=N)N)C(=O)O` (stereo partly specified) [YLYEIAR], the “collision cross section (N2)” value in data set [3] ([M+H]+) came to 305 Å². Same read-out and setting: the figure for `CC(C)[C@H](NC(=O)[C@@H](N)Cc1ccc(O)cc1)C(=O)N[C@@H](CCCNC(=N)N)C(=O)O` [YVR] is 207 Å².
